Measurements taken from patent US20030236457A1, “Method of endovascular brain mapping” (priority 2002, published 2003).
Counter-ions that a name gives are not always drawn. Like-named read-outs stand apart in the source and are kept apart here. Ends that are not written are not given here.

Columns and labels:
[1] = tested on: brain parenchyma; conditions: awake patient, intra-arterial infusion; cited from earlier work
[2] = cited from earlier work
[3] = chronic subcutaneous injections; cited from earlier work
[4] = tested on: rat brain; assay: Endovascular brain mapping: dye or embolic agent infused into the internal carotid artery, brains harvested to examine staining quality; format: in vivo, Sprague Dawley rats; conditions: ICA infusion after blood brain barrier disruption with arabinose, dye mixed with Omnipaque
Protocol: Generally, Sprague Dawley rats were anesthetized and vascular access obtained by ventral cervical cutdown. A catheter was introduced into the common carotid artery proximal to the ICA. All other branches were clamped temporarily with aneurysm clips, permitting flow to the ICA alone. The blood brain barrier was disrupted with a solution of arabinose. […] Tantalum powder was also tested without blood brain barrier disruption. The brains were harvested for examination of the quality of staining.
Using a carotid cutdown method, the CCA was exposed and a catheter was introduced into the lumen proximal to the ICA. A ligature secured the catheter within the vessel. The external carotid artery and occipital artery were clamped, preserving flow to the ICA.
To test the use of tantalum powder, the same procedure described above was performed without disruption of the blood brain barrier. A small amount of tantalum powder suspension was then injected under fluoroscopic visualization until the right hemispheric distribution was opacified.

[5] = cited from earlier work; remark: listed apart in the source
[6] = Table 3, solvent or buffer named
[7] = Table 1, medium in which the fluorophore is solubilised

Molecule	Solubility [2, 6]	Solubility [2, 7]	other results
C=CCC1(C(C)C#CCC)C(=O)N=C(O)N(C)C1=O (racemic) [Brevital®, Methohexital Sodium; 2,4,6 (1H, 3H, 5H) Pyrimidinetrione, 1-methyl-5-(1-methyl-2-pentynyl)-5-(2-propenyl)-, (±)-, monosodium salt]	–	–	duration of temporary neurological deficits after infusion [1]: resolve back to baseline within several minutes
NCc1ccc(-c2c3ccc(=O)cc-3oc3cc(O)ccc23)c(C(=O)O)c1 [5-(aminomethyl) fluorescein, hydrochloride]	DMF	–	–
CCCCCCCCCCCC(=O)Nc1ccc(-c2c3ccc(=O)cc-3oc3cc(O)ccc23)c(C(=O)O)c1 [5-dodecanoylamino-fluorescein]	–	CDs	–
CCCCc1ccc2n1[B-](F)(F)[N+]1=C(CCCCCCCCC(=O)O)C=CC1=C2 [C4-BODIPY ® (500/510) C9, 5-butyl-4,4-difluoro-4-bora-3a,4a-diaza-s-indacene-3-nonanoic acid]	–	CDs	–
CCN(Cc1cccc(S(=O)(=O)[O-])c1)c1ccc(C(=C2C=CC(=[N+](CC)Cc3cccc(S(=O)(=O)[O-])c3)C=C2)c2ccc(O)cc2S(=O)(=O)[O-])cc1.[Na+].[Na+] [FD & C Green #3]	–	–	induction of sarcomas [3]: induction of sarcomas; staining of the selected vascular distribution of the brain [4]: clearly stained both on the cortical surface; staining of the selected vascular distribution of the brain ([4]; listed as FD&C Green #3): good staining of a selective vascular distribution
CC1=CC(C)=[N+]2C1=Cc1c(C)cc(C)n1[B-]2(F)F [Tetramethyl- BODIPY ® (505/515), 4,4-difluoro-1,3,5,7-tetramethyl-4-bora-3a,4a-diaza-s-indacene]	–	Cyclodextrins (CD)	–
FLUO-RGGRLSYSRRRESTSTGR (not fully specified (N-terminus); printed as FLUO-RGGRLSYSRRRESTSTGR) [FLUO-L-SynB1]	Phosphate	–	–
FLUO-RRLSYSRRRF (not fully specified (N-terminus); printed as FLUO-RRLSYSRRRF) [FLUO-L-SynB3]	PBS	–	–
carboxymethyl-β-cyclodextrin [CM-β-CD]	–	–	solubility in water [5]: 50 mg/mL
